US6808877B2, “Ligands for FPR class receptors that induce a host immune response to a pathogen or inhibit HIV infection” (priority 2000, dated 2004)

How the values were obtained:
HIV-1BAL-env = assay type: cell-based; conditions: HOS/CD4/CCR5 cells co-expressing FPR
[1] = test system: monocyte tropic strains of HIV-1; assay type: cell-based; conditions: FPR-transfected HOS cells
CCR5 [2] = assay type: cell-based, human; conditions: HOS/CD4/CCR5 cells co-expressing FPR
[3] = test system: parental or mock transfected cells; test: Ca2+ mobilization in parental or mock transfected rat basophil cell line and HEK 293 cells; assay type: cell-based
monocytes [4] = test: Monocyte migration in response to MIP-1β after pretreatment; assay type: cell-based, human; conditions: fMLP 10^−6 M, 37° C.
Protocol: Monocyte migration was assessed by a 48-well micro-chemotaxis chamber technique. 25 μl MIP-1β diluted in assay medium (RPMI 1640 with 1% BSA and 25 mM Hepes) was placed in the lower compartment of the chemotaxis chamber. 50 μl cell suspension (1×10^6 cell/ml) was placed in the upper compartment of the chamber. The upper and lower compartments were separated by a polycarbonate filter (5 μm pore-size, Neuroprobe, Cabin John, Md.). The chamber was incubated at 37° C. for 90 min in humidified air with 5% CO2. At the end of the incubation, the filter was removed, fixed and stained with Diff-Quik (Harlew, Gibbstown, N.J.). The migrated cells in three high-powered fields (HPF) obtained in triplicates (400×) were counted by light microscopy after coding the samples. The results are expressed as the net mean (±SD) number of migrated cells in 3 HPF after subtraction of spontaneous migration. At least three experiments were performed with same results.

HIVJRFL = assay type: cell-based, HIV-1; conditions: peripheral blood monocyte/macrophages
macrophages = conditions: compared to cells treated with medium alone
CCR5 [5] = test: 125I-MIP-1β binding to monocytes; parameters: species or system human
Protocol: Rocky Hill, N.J.). After incubation, the cells were washed with DPBS and centrifuged through a 10% sucrose/DPBS cushion. The tips of tubes containing cell pellets were cut and the cell-associated radioactivity was determined in a gamma counter. The results were presented as counts per minute (cpm) on 2×10^6 monocyte and were representative of at least three experiments performed.

CCR5 [6] = test: Surface expression of CCR5 on monocytes by flow cytometry; assay type: cell-based, human; conditions: FITC-anti-CCR5 2D7
Protocol: The change of surface expression of CCR5 on monocytes was monitored by FACS analyses (courtesy of L. […] The cells were then washed twice with DPBS containing 2% BSA and fixed with 1% Paraformaldehyde (Sigma). The fluorescence was measured by flow cytometer (Becton Dickinson, San Jose, Calif.). Results are presented as the percentage of cells stained with anti-CCR5 antibody.

CXCR4 = CXCR4 (Homo sapiens, UniProt P61073); test: Interaction with CXCR4
CXCR4, sequence (P61073 whole entry): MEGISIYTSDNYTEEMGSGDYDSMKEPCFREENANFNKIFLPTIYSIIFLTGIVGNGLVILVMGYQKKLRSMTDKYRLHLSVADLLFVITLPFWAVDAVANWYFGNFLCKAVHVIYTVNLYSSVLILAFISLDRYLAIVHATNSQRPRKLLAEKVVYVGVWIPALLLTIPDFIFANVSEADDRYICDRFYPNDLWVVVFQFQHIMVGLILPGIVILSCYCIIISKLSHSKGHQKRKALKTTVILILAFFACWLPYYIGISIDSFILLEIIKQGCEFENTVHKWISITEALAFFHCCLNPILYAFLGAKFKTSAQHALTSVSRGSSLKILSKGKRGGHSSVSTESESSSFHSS

T lymphocytes = test: T lymphocyte chemotaxis; assay type: cell-based, human
neutrophils = test: Neutrophil chemotaxis, 48-well micro-chemotaxis chamber; assay type: cell-based; conditions: human neutrophils
FPR = target: T1, FPR (Homo sapiens, UniProt P21462); test: Migration of ETFR cells; assay type: cell-based; conditions: ETFR cells (overexpressing FPR)
T1 construct: H. Ali and R. Snyderman (Duke University); host or cells: RBL-2H3 rat basophilic leukemia cells
T1 sequence (P21462 1-350): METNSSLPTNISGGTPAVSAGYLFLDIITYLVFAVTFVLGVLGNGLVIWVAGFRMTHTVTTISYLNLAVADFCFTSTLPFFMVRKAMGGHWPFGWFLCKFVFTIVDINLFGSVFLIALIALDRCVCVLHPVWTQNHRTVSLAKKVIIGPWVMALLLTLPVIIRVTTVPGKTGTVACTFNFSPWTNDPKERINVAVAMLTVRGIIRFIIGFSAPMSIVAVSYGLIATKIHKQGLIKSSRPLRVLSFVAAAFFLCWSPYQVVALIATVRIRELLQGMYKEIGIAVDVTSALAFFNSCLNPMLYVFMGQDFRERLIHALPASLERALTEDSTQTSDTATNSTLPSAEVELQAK

monocytes [7] = test: Monocyte chemotaxis, 48-well micro-chemotaxis chamber; assay type: cell-based, human; conditions: human monocytes

| Compound | HIV-1BAL-env-mediated fusion (HIV-1BAL-env) | fusion and infection, syncytia formation and p24 production [1] | phosphorylation of CCR5 (CCR5 [2]) | Ca2+ mobilization [3] | chemotactic response to MIP-1β after pretreatment (monocytes [4]) | fusion and infection, syncytia formation and p24 production (HIVJRFL) | viability of macrophages (macrophages) | specific binding for 125I-MIP-1β after treatment (CCR5 [5]; monocytes treated for 1 h) | binding of 125I-MIP-1β after treatment (CCR5 [5]; monocytes treated for up to 30 min at 37° C.) | displacement of 125I-MIP-1β binding (CCR5 [5]; monocytes, high concentrations as competitor) | expression of CCR5 on the cell surface (CCR5 [6]) | interaction with CXCR4 (CXCR4) | chemotactic activity (T lymphocytes) | chemotactic activity / migration (neutrophils) | migration / chemotaxis (FPR) | chemotactic activity / migration (monocytes [7]) |
| --- | --- | --- | --- | --- | --- | --- | --- | --- | --- | --- | --- | --- | --- | --- | --- | --- |
| CSCC[C@H](NC=O)C(=O)N[C@@H](CC(C)C)C(=O)N[C@@H](Cc1ccccc1)C(=O)O [fMLP, N-formyl-methionyl-leucyl-phenylalanine] | markedly inhibited | significantly reduced the fusion and infection | induced an increase in phosphorylation of CCR5 | did not induce Ca^2+ mobilization | progressively reduced chemotactic response | significantly reduced the fusion and infection | did not affect the viability of macrophages | markedly reduced | only a marginally reduced binding | did not displace any | markedly downregulated | – | – | – | – | – |
| TRPNYNKRKRIHIGPGRAFYTTKNIIGTIRQAH-NH2 [V3 peptide] | – | – | – | – | – | – | – | – | – | – | – | did not interact with CXCR4 | weak chemoattractant | potent chemoattractant | low level of chemotaxis response | potent chemoattractant |
